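In this assay, cells in 96-well plates receive the compound at five concentrations for 48 hours. Endpoints are linearly interpolated between the surrounding concentrations. The concentration for 50% growth inhibition is given as GI50.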 Active and inactive are the calls of the source. Rule as the data show it: active = GI50 up to about 1.1 µM and inactive = higher.
What was measured:
Test in all cases: inhibition of tumour cell growth, NCI panel, 48 h
[1] = tested on: CCRF-CEM
[2] = tested on: TK-10
[3] = tested on: 786-0
[4] = tested on: OVCAR-3
[5] = tested on: A498
[6] = tested on: NCI-H226
[7] = tested on: SNB-19
[8] = tested on: Malme-3M
[9] = tested on: KM12
[10] = tested on: SNB-75
[11] = tested on: HT-29
[12] = tested on: BT-549
[13] = tested on: MCF7
[14] = tested on: U-251
[15] = tested on: SF-268
[16] = tested on: OVCAR-5
[17] = tested on: HCT-15
[18] = tested on: SK-OV-3
[19] = tested on: HOP-92
[20] = tested on: DU-145

Row | SMILES | GI50 [1] | GI50 [2] | GI50 [3] | GI50 [4] | GI50 [5] | GI50 [6] | GI50 [7] | GI50 [8] | GI50 [9] | GI50 [10] | GI50 [11] | GI50 [12] | GI50 [13] | GI50 [14] | GI50 [15] | GI50 [16] | GI50 [17] [µM] | GI50 [18] | GI50 [19] | GI50 [20]
1 | O=C(O)C(C1NCCS1)N1C(=O)c2ccccc2C1=O (stereo not drawn) | > 100 µM (inactive) | > 100 µM (inactive) | > 100 µM (inactive) | > 100 µM (inactive) | > 100 µM (inactive) | > 100 µM (inactive) | > 100 µM (inactive) | > 100 µM (inactive) | > 100 µM (inactive) | > 100 µM (inactive) | > 100 µM (inactive) | > 100 µM (inactive) | > 100 µM (inactive) | > 100 µM (inactive) | > 100 µM (inactive) | > 100 µM (inactive) | > 100 | > 100 µM (inactive) | > 100 µM (inactive) | > 100 µM (inactive)
2 | Cc1ccc2c(c1)C(=O)/C(=C\c1ccccc1)CCS2(=O)=O | 1.07 µM (active) | 13.8 µM (inactive) | 11.2 µM (inactive) | 13.1 µM (inactive) | 19.7 µM (inactive) | 15.7 µM (inactive) | 8.51 µM (inactive) | 10.7 µM (inactive) | 10.5 µM (inactive) | 20.6 µM (inactive) | 9.06 µM (inactive) | 6.68 µM (inactive) | 6.21 µM (inactive) | 4.69 µM (inactive) | 15.1 µM (inactive) | 19 µM (inactive) | 4.84 | 15.9 µM (inactive) | 12.9 µM (inactive) | 3.27 µM (inactive)
3 | CC(C)(C)OC(=O)c1ccc(NCC2=CC(=O)C=CC2=O)cc1 | 1.76 µM (inactive) | 9.25 µM (inactive) | 9.35 µM (inactive) | 4.15 µM (inactive) | 15.2 µM (inactive) | 18.2 µM (inactive) | 15.1 µM (inactive) | 2.89 µM (inactive) | 14.5 µM (inactive) | 8.28 µM (inactive) | 17.3 µM (inactive) | 11.6 µM (inactive) | 0.706 µM (active) | 14 µM (inactive) | 11.5 µM (inactive) | 17.8 µM (inactive) | 7.18 | 17.1 µM (inactive) | 1.93 µM (inactive) | 16.1 µM (inactive)
4 | O=C(NN1CCCCC1)c1cc2cc(CCl)ccc2oc1=O | 17.2 µM (inactive) | 17 µM (inactive) | 16.5 µM (inactive) | 20.4 µM (inactive) | 75.2 µM (inactive) | 20.6 µM (inactive) | 23.6 µM (inactive) | 10.5 µM (inactive) | 22.1 µM (inactive) | 18.6 µM (inactive) | 14.9 µM (inactive) | 19.3 µM (inactive) | 38.7 µM (inactive) | 16.9 µM (inactive) | 16.4 µM (inactive) | 17.2 µM (inactive) | 17.7 | 21.9 µM (inactive) | 10.4 µM (inactive) | 29.4 µM (inactive)
5 | O=C(NCCCN(CCCCN(CCCNC(=O)C(F)(F)F)CCCc1ccccc1)CCCc1ccccc1)C(F)(F)F | 4.63 µM (inactive) | 1.91 µM (inactive) | 1.25 µM (inactive) | – | 2.21 µM (inactive) | 10.4 µM (inactive) | 2 µM (inactive) | 1.75 µM (inactive) | 1.95 µM (inactive) | 1.12 µM (active) | 1.55 µM (inactive) | 2.68 µM (inactive) | 1.48 µM (inactive) | 1.6 µM (inactive) | 1.63 µM (inactive) | 12.8 µM (inactive) | 1.44 | 2.49 µM (inactive) | 1.62 µM (inactive) | 2 µM (inactive)
6 | C=C(CN(C)C)C(=O)c1ccccc1[N+](=O)[O-] | – | 19.5 µM (inactive) | 12.2 µM (inactive) | 18.9 µM (inactive) | > 57.8 µM (inactive) | 30.1 µM (inactive) | > 56.4 µM (inactive) | 7.76 µM (inactive) | 31.1 µM (inactive) | 34.8 µM (inactive) | 19.2 µM (inactive) | 16.3 µM (inactive) | 14.3 µM (inactive) | 32.2 µM (inactive) | 27.2 µM (inactive) | 15.8 µM (inactive) | 10.8 | 37.2 µM (inactive) | 9.14 µM (inactive) | 23.6 µM (inactive)
7 | O=[N+]([O-])c1cc2oc(COc3ccccc3)nc2cc1Cl | 27.5 µM (inactive) | 35 µM (inactive) | 33.1 µM (inactive) | 17.9 µM (inactive) | 33.1 µM (inactive) | 17 µM (inactive) | 38.8 µM (inactive) | 33.7 µM (inactive) | 20.9 µM (inactive) | 18.7 µM (inactive) | 32.5 µM (inactive) | 20.8 µM (inactive) | 23.8 µM (inactive) | 22.8 µM (inactive) | 47.4 µM (inactive) | 28.4 µM (inactive) | 18.7 | 24.9 µM (inactive) | 22.5 µM (inactive) | 32.3 µM (inactive)
